5 molecules from patent US8785445B2 (Array BioPharma Inc., priority 2008, dated 2014) can be followed below.

In the experiment the target is T1, human DP2 (Homo sapiens, UniProt Q9Y5Y4).
T1 construct: expressed in transfected cells; membranes prepared
T1 sequence (Q9Y5Y4 1-395): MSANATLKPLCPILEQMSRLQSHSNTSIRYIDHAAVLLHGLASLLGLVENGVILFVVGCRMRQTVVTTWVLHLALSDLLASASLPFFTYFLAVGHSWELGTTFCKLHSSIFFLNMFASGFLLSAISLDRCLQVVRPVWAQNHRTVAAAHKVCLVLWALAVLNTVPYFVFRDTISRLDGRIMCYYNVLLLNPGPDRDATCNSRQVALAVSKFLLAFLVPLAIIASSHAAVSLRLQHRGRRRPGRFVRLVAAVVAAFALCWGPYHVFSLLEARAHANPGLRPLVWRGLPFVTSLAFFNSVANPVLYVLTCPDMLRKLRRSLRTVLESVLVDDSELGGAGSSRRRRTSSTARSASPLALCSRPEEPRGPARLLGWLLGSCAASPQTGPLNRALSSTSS
Kind of experiment: DP-2 binding inhibition assay (3H-PGD2, membranes of DP2-expressing K562 cells). Conditions: 4% HSA, read-out: EC50 (nM) 4% HSA. An outline of the steps:
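Displacement of 3H-PGD2 was measured by filtration and scintillation counting after 60 min at room temperature, using membranes of DP2-transfected K562 cells in 0.1% BSA, 1% HSA or 4% HSA.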
By EC50 is commonly meant the concentration giving half of the maximal effect. Take `O=C(NCCc1cccnc1-c1ccccc1Cl)c1ccc(Oc2cc3c(cc2Cl)C(C(=O)O)CCO3)cc1` (centres unmarked) [Example 224, 6-chloro-7-(4-(2-(2-(2-chlorophenyl)pyridin-3-yl)ethylcarbamoyl)phenoxy) chroman-4-carboxylic acid]: the EC50 amounted to 998 nM.

With `CN(C)c1ncccc1CCNC(=O)c1ccc(Oc2cc3c(cc2Cl)C(C(=O)O)CCO3)cc1` (centres unmarked) [Example 225, 6-chloro-7-(4-(2-(2-(dimethylamino)pyridin-3-yl)ethylcarbamoyl)phenoxy) chroman-4-carboxylic acid], the EC50 is 664 nM.

As for `O=C(NCCc1cccnc1N1CCCCC1)c1ccc(Oc2cc3c(cc2Cl)C(C(=O)O)CCO3)cc1` (centres unmarked) [Example 226, 6-chloro-7-(4-(2-(2-(piperidin-1-yl)pyridin-3-yl)ethylcarbamoyl)phenoxy) chroman-4-carboxylic acid], the EC50 was found to be 1920 nM.

Consider `COc1ncccc1CCNC(=O)c1ccc(Oc2cc3c(cc2Cl)C(C(=O)O)CCO3)cc1` (centres unmarked) [Example 227, 6-chloro-7-(4-(2-(2-methoxypyridin-3-yl)ethylcarbamoyl)phenoxy) chroman-4-carboxylic acid], for which the EC50 was 857 nM.

`CC(C)Oc1ncccc1CCNC(=O)c1ccc(Oc2cc3c(cc2Cl)C(C(=O)O)CCO3)cc1` (centres unmarked) [Example 228, 6-chloro-7-(4-(2-(2-isopropoxypyridin-3-yl)ethylcarbamoyl)phenoxy) chroman-4-carboxylic acid]: the EC50 is 195 nM.
